Reference: ChEMBL document CHEMBL2040848, “Synthesis and bioactivity evaluation of rhodanine derivatives as potential anti-bacterial agents” (2012)
In brackets after ≈: the same amount, converted by molar mass.

These molecules were tested on Staphylococcus aureus (assay: Antibacterial activity against Staphylococcus aureus KCTC 4220 after 24 hrs by two-fold serial dilution method). Settings: KCTC 4220, 24 h.
Type: functional

| Structure (SMILES) | MIC |
| --- | --- |
| O=C(COc1ccc(/C=C2\SC(=S)N([C@@H](Cc3ccc(O)cc3)C(=O)O)C2=O)cc1)c1ccc(Br)cc1 | 8 µg/mL (≈ 13.4 µM) |
| COc1cccc(C(=O)COc2ccc(/C=C3\SC(=S)N([C@@H](Cc4c[nH]c5ccccc45)C(=O)O)C3=O)cc2)c1 | 8 µg/mL (≈ 14 µM) |
| O=C(COc1ccc(/C=C2\SC(=S)N([C@@H](Cc3c[nH]c4ccccc34)C(=O)O)C2=O)cc1)c1ccccc1Br | 8 µg/mL (≈ 12.9 µM) |
| O=C(COc1ccc(/C=C2\SC(=S)N([C@@H](Cc3ccc(O)cc3)C(=O)O)C2=O)cc1)c1ccccc1F | 32 µg/mL (≈ 59.5 µM) |
| O=C(COc1ccc(/C=C2\SC(=S)N([C@@H](Cc3ccccc3)C(=O)O)C2=O)cc1)c1cccc(Cl)c1 | 8 µg/mL (≈ 14.9 µM) |
| O=C(COc1ccc(/C=C2\SC(=S)N([C@@H](Cc3ccc(O)cc3)C(=O)O)C2=O)cc1)c1ccccc1Cl | 16 µg/mL (≈ 28.9 µM) |
| O=C(COc1ccc(/C=C2\SC(=S)N([C@@H](Cc3ccccc3)C(=O)O)C2=O)cc1)c1ccccc1Cl | 8 µg/mL (≈ 14.9 µM) |

Each molecule was assayed on Escherichia coli (assay: Antibacterial activity against Escherichia coli 1356 after 24 hrs by two-fold serial dilution method). Settings: Escherichia coli, 1356, 24 h.
Type: functional

| Structure (SMILES) | MIC |
| --- | --- |
| O=C(COc1ccc(/C=C2\SC(=S)N([C@@H](Cc3ccc(O)cc3)C(=O)O)C2=O)cc1)c1ccc(Br)cc1 | > 64 µg/mL |
| COc1cccc(C(=O)COc2ccc(/C=C3\SC(=S)N([C@@H](Cc4c[nH]c5ccccc45)C(=O)O)C3=O)cc2)c1 | > 64 µg/mL |
| O=C(COc1ccc(/C=C2\SC(=S)N([C@@H](Cc3c[nH]c4ccccc34)C(=O)O)C2=O)cc1)c1ccccc1Br | > 64 µg/mL |
| O=C(COc1ccc(/C=C2\SC(=S)N([C@@H](Cc3ccc(O)cc3)C(=O)O)C2=O)cc1)c1ccccc1F | > 64 µg/mL |
| O=C(COc1ccc(/C=C2\SC(=S)N([C@@H](Cc3ccccc3)C(=O)O)C2=O)cc1)c1cccc(Cl)c1 | > 64 µg/mL |
| O=C(COc1ccc(/C=C2\SC(=S)N([C@@H](Cc3ccc(O)cc3)C(=O)O)C2=O)cc1)c1ccccc1Cl | > 64 µg/mL |
| O=C(COc1ccc(/C=C2\SC(=S)N([C@@H](Cc3ccccc3)C(=O)O)C2=O)cc1)c1ccccc1Cl | > 64 µg/mL |

What follows are molecules tested on Staphylococcus aureus (assay: Antibacterial activity against methicillin-resistant Staphylococcus aureus CCARM 3506 after 24 hrs by two-fold serial dilution method). Settings: CCARM 3506, 24 h.
Type: functional

| Structure (SMILES) | MIC |
| --- | --- |
| O=C(COc1ccc(/C=C2\SC(=S)N([C@@H](Cc3ccc(O)cc3)C(=O)O)C2=O)cc1)c1ccc(Br)cc1 | 8 µg/mL (≈ 13.4 µM) |
| COc1cccc(C(=O)COc2ccc(/C=C3\SC(=S)N([C@@H](Cc4c[nH]c5ccccc45)C(=O)O)C3=O)cc2)c1 | 8 µg/mL (≈ 14 µM) |
| O=C(COc1ccc(/C=C2\SC(=S)N([C@@H](Cc3c[nH]c4ccccc34)C(=O)O)C2=O)cc1)c1ccccc1Br | 8 µg/mL (≈ 12.9 µM) |
| O=C(COc1ccc(/C=C2\SC(=S)N([C@@H](Cc3ccc(O)cc3)C(=O)O)C2=O)cc1)c1ccccc1F | 16 µg/mL (≈ 29.8 µM) |
| O=C(COc1ccc(/C=C2\SC(=S)N([C@@H](Cc3ccccc3)C(=O)O)C2=O)cc1)c1cccc(Cl)c1 | 4 µg/mL (≈ 7.43 µM) |
| O=C(COc1ccc(/C=C2\SC(=S)N([C@@H](Cc3ccc(O)cc3)C(=O)O)C2=O)cc1)c1ccccc1Cl | 16 µg/mL (≈ 28.9 µM) |
| O=C(COc1ccc(/C=C2\SC(=S)N([C@@H](Cc3ccccc3)C(=O)O)C2=O)cc1)c1ccccc1Cl | 4 µg/mL (≈ 7.43 µM) |

What follows are molecules tested on Staphylococcus aureus (assay: Antibacterial activity against methicillin-resistant Staphylococcus aureus CCARM 3167 after 24 hrs by two-fold serial dilution method). Settings: CCARM 3167, 24 h.
Type: functional

| Structure (SMILES) | MIC |
| --- | --- |
| O=C(COc1ccc(/C=C2\SC(=S)N([C@@H](Cc3ccc(O)cc3)C(=O)O)C2=O)cc1)c1ccc(Br)cc1 | 8 µg/mL (≈ 13.4 µM) |
| COc1cccc(C(=O)COc2ccc(/C=C3\SC(=S)N([C@@H](Cc4c[nH]c5ccccc45)C(=O)O)C3=O)cc2)c1 | 8 µg/mL (≈ 14 µM) |
| O=C(COc1ccc(/C=C2\SC(=S)N([C@@H](Cc3c[nH]c4ccccc34)C(=O)O)C2=O)cc1)c1ccccc1Br | 4 µg/mL (≈ 6.44 µM) |
| O=C(COc1ccc(/C=C2\SC(=S)N([C@@H](Cc3ccc(O)cc3)C(=O)O)C2=O)cc1)c1ccccc1F | 16 µg/mL (≈ 29.8 µM) |
| O=C(COc1ccc(/C=C2\SC(=S)N([C@@H](Cc3ccccc3)C(=O)O)C2=O)cc1)c1cccc(Cl)c1 | 4 µg/mL (≈ 7.43 µM) |
| O=C(COc1ccc(/C=C2\SC(=S)N([C@@H](Cc3ccc(O)cc3)C(=O)O)C2=O)cc1)c1ccccc1Cl | 8 µg/mL (≈ 14.4 µM) |
| O=C(COc1ccc(/C=C2\SC(=S)N([C@@H](Cc3ccccc3)C(=O)O)C2=O)cc1)c1ccccc1Cl | 4 µg/mL (≈ 7.43 µM) |

Each molecule was assayed on Staphylococcus aureus (assay: Antibacterial activity against Staphylococcus aureus KCTC 503 after 24 hrs by two-fold serial dilution method). Settings: KCTC 503, 24 h.
Type: functional

| Structure (SMILES) | MIC |
| --- | --- |
| O=C(COc1ccc(/C=C2\SC(=S)N([C@@H](Cc3ccc(O)cc3)C(=O)O)C2=O)cc1)c1ccc(Br)cc1 | 4 µg/mL (≈ 6.68 µM) |
| COc1cccc(C(=O)COc2ccc(/C=C3\SC(=S)N([C@@H](Cc4c[nH]c5ccccc45)C(=O)O)C3=O)cc2)c1 | 8 µg/mL (≈ 14 µM) |
| O=C(COc1ccc(/C=C2\SC(=S)N([C@@H](Cc3c[nH]c4ccccc34)C(=O)O)C2=O)cc1)c1ccccc1Br | 4 µg/mL (≈ 6.44 µM) |
| O=C(COc1ccc(/C=C2\SC(=S)N([C@@H](Cc3ccc(O)cc3)C(=O)O)C2=O)cc1)c1ccccc1F | 16 µg/mL (≈ 29.8 µM) |
| O=C(COc1ccc(/C=C2\SC(=S)N([C@@H](Cc3ccccc3)C(=O)O)C2=O)cc1)c1cccc(Cl)c1 | 4 µg/mL (≈ 7.43 µM) |
| O=C(COc1ccc(/C=C2\SC(=S)N([C@@H](Cc3ccc(O)cc3)C(=O)O)C2=O)cc1)c1ccccc1Cl | 8 µg/mL (≈ 14.4 µM) |
| O=C(COc1ccc(/C=C2\SC(=S)N([C@@H](Cc3ccccc3)C(=O)O)C2=O)cc1)c1ccccc1Cl | 8 µg/mL (≈ 14.9 µM) |

The molecules below were run on Staphylococcus aureus (assay: Antibacterial activity against Staphylococcus aureus KCTC 209 after 24 hrs by two-fold serial dilution method). Settings: KCTC 209, 24 h.
Type: functional

| Structure (SMILES) | MIC |
| --- | --- |
| O=C(COc1ccc(/C=C2\SC(=S)N([C@@H](Cc3ccc(O)cc3)C(=O)O)C2=O)cc1)c1ccc(Br)cc1 | 4 µg/mL (≈ 6.68 µM) |
| COc1cccc(C(=O)COc2ccc(/C=C3\SC(=S)N([C@@H](Cc4c[nH]c5ccccc45)C(=O)O)C3=O)cc2)c1 | 8 µg/mL (≈ 14 µM) |
| O=C(COc1ccc(/C=C2\SC(=S)N([C@@H](Cc3c[nH]c4ccccc34)C(=O)O)C2=O)cc1)c1ccccc1Br | 4 µg/mL (≈ 6.44 µM) |
| O=C(COc1ccc(/C=C2\SC(=S)N([C@@H](Cc3ccc(O)cc3)C(=O)O)C2=O)cc1)c1ccccc1F | 8 µg/mL (≈ 14.9 µM) |
| O=C(COc1ccc(/C=C2\SC(=S)N([C@@H](Cc3ccccc3)C(=O)O)C2=O)cc1)c1cccc(Cl)c1 | 4 µg/mL (≈ 7.43 µM) |
| O=C(COc1ccc(/C=C2\SC(=S)N([C@@H](Cc3ccc(O)cc3)C(=O)O)C2=O)cc1)c1ccccc1Cl | 16 µg/mL (≈ 28.9 µM) |
| O=C(COc1ccc(/C=C2\SC(=S)N([C@@H](Cc3ccccc3)C(=O)O)C2=O)cc1)c1ccccc1Cl | 8 µg/mL (≈ 14.9 µM) |

Each molecule was assayed on Staphylococcus aureus (assay: Antibacterial activity against quinolone-resistant Staphylococcus aureus CCARM 3505 after 24 hrs by two-fold serial dilution method). Settings: CCARM 3505, 24 h.
Type: functional

| Structure (SMILES) | MIC |
| --- | --- |
| O=C(COc1ccc(/C=C2\SC(=S)N([C@@H](Cc3ccc(O)cc3)C(=O)O)C2=O)cc1)c1ccc(Br)cc1 | 8 µg/mL (≈ 13.4 µM) |
| COc1cccc(C(=O)COc2ccc(/C=C3\SC(=S)N([C@@H](Cc4c[nH]c5ccccc45)C(=O)O)C3=O)cc2)c1 | 8 µg/mL (≈ 14 µM) |
| O=C(COc1ccc(/C=C2\SC(=S)N([C@@H](Cc3c[nH]c4ccccc34)C(=O)O)C2=O)cc1)c1ccccc1Br | 4 µg/mL (≈ 6.44 µM) |
| O=C(COc1ccc(/C=C2\SC(=S)N([C@@H](Cc3ccc(O)cc3)C(=O)O)C2=O)cc1)c1ccccc1F | 16 µg/mL (≈ 29.8 µM) |
| O=C(COc1ccc(/C=C2\SC(=S)N([C@@H](Cc3ccccc3)C(=O)O)C2=O)cc1)c1cccc(Cl)c1 | 4 µg/mL (≈ 7.43 µM) |
| O=C(COc1ccc(/C=C2\SC(=S)N([C@@H](Cc3ccc(O)cc3)C(=O)O)C2=O)cc1)c1ccccc1Cl | 8 µg/mL (≈ 14.4 µM) |
| O=C(COc1ccc(/C=C2\SC(=S)N([C@@H](Cc3ccccc3)C(=O)O)C2=O)cc1)c1ccccc1Cl | 4 µg/mL (≈ 7.43 µM) |

The molecules below were run on Staphylococcus aureus (assay: Antibacterial activity against quinolone-resistant Staphylococcus aureus CCARM 3519 after 24 hrs by two-fold serial dilution method). Settings: CCARM 3519, 24 h.
Type: functional

| Structure (SMILES) | MIC |
| --- | --- |
| O=C(COc1ccc(/C=C2\SC(=S)N([C@@H](Cc3ccc(O)cc3)C(=O)O)C2=O)cc1)c1ccc(Br)cc1 | 8 µg/mL (≈ 13.4 µM) |
| COc1cccc(C(=O)COc2ccc(/C=C3\SC(=S)N([C@@H](Cc4c[nH]c5ccccc45)C(=O)O)C3=O)cc2)c1 | 8 µg/mL (≈ 14 µM) |
| O=C(COc1ccc(/C=C2\SC(=S)N([C@@H](Cc3c[nH]c4ccccc34)C(=O)O)C2=O)cc1)c1ccccc1Br | 8 µg/mL (≈ 12.9 µM) |
| O=C(COc1ccc(/C=C2\SC(=S)N([C@@H](Cc3ccc(O)cc3)C(=O)O)C2=O)cc1)c1ccccc1F | 16 µg/mL (≈ 29.8 µM) |
| O=C(COc1ccc(/C=C2\SC(=S)N([C@@H](Cc3ccccc3)C(=O)O)C2=O)cc1)c1cccc(Cl)c1 | 4 µg/mL (≈ 7.43 µM) |
| O=C(COc1ccc(/C=C2\SC(=S)N([C@@H](Cc3ccc(O)cc3)C(=O)O)C2=O)cc1)c1ccccc1Cl | 16 µg/mL (≈ 28.9 µM) |
| O=C(COc1ccc(/C=C2\SC(=S)N([C@@H](Cc3ccccc3)C(=O)O)C2=O)cc1)c1ccccc1Cl | 4 µg/mL (≈ 7.43 µM) |
